Measured values reported in patent publication US9334256B2, “Agents and methods for treating ischemic and other diseases” (NoNO INC., priority 2011, dated 2016).

Columns and labels:
[1] = molecular target: T1, TRPM7 (Mus musculus, UniProt Q923J1); assay: PI uptake cell death assay in TRPM7-expressing HEK-293 cells (type of assay from Example 1); type: cell-based, murine
T1 construct: expressed in transfected cells; host or cells: HEK-293 tSA (HEK-293T) cells, transient transfection with Lipofectamine 2000
T1 sequence (Q923J1 whole entry): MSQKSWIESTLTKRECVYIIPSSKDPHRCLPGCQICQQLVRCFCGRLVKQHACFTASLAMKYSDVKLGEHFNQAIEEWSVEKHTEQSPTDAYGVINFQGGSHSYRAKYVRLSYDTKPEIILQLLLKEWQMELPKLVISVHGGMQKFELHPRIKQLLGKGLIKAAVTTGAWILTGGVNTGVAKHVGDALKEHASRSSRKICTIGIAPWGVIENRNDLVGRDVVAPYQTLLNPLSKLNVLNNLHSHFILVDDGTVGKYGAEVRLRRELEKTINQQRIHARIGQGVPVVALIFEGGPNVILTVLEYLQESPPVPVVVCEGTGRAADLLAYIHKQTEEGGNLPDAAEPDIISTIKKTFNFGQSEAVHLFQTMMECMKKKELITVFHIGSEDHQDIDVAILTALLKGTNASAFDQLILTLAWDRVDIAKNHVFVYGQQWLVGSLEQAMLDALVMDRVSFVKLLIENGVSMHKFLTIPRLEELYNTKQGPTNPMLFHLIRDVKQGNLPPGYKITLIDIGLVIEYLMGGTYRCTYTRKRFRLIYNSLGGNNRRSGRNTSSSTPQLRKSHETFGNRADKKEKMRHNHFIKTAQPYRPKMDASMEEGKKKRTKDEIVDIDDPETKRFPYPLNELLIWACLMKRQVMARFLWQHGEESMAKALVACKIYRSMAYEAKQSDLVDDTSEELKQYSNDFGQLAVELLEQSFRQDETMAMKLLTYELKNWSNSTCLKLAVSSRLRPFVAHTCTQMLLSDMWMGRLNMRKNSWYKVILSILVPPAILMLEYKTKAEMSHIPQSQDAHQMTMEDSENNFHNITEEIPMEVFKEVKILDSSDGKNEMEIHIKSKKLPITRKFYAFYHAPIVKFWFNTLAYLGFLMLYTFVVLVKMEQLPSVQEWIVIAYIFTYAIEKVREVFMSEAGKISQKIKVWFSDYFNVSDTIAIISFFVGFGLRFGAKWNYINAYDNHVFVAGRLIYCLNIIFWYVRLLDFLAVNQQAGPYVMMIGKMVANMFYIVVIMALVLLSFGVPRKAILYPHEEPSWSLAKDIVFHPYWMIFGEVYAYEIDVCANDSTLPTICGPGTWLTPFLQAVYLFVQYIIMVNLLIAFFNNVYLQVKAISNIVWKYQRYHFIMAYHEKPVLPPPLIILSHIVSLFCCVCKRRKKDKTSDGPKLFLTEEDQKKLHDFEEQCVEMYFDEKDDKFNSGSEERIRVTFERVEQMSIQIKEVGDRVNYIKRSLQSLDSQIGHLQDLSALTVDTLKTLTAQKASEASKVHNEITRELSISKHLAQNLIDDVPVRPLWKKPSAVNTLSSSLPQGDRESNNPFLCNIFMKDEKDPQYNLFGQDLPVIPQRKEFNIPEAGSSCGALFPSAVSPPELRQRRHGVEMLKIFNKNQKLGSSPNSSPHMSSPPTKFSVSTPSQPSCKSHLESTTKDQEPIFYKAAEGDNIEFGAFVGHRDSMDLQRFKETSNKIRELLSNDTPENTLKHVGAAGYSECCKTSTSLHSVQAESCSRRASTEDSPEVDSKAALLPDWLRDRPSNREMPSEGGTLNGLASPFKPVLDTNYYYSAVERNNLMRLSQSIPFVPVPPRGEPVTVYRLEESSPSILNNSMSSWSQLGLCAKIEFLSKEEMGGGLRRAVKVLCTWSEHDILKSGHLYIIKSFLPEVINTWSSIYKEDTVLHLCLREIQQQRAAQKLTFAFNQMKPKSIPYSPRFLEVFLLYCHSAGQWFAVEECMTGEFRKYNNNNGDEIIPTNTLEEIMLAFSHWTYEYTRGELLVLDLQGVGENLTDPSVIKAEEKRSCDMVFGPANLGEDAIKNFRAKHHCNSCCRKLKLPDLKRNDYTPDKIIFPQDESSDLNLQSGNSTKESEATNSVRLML
Source text: The TRPM7 channel provides a pathway for mono- and divalent cations into the cell, and is unique in that it contains a functional C-terminal α-kinase domain. […] The induction of chemical anoxia in host cells such as recombinant HEK293 cells can be used to activate TRPM7. This activation is detectable with the use measurements of cellular calcium accumulation. This is achievable with the use of a fluorescent calcium indicator. Alternatively, this activation can also be measured using radiolabelled Ca2+ (^45Ca^2+) as described previously by Sattler et al. (Sattler et al., 1998) and Aarts et al. (Aarts et al., 2003).
Hoechst 33342 was purchased as a 10 mg/mL solution in water (Molecular Probes Inc., Eugene, Oreg.). Propidium iodide (PI) was purchased as a powder and prepared by dissolving in PBS at 1 mg/mL. PI solutions were stored at 4° C. until use. Hoechst and PI were added directly to cell culture to 5 μg/mL and 10 μg/mL respectively. Cells were incubated at room temperature or at 37° C. for 10 minutes to allow for adequate uptake, and fluorescence observed using a NIKON Eclipse TE2000 inverted microscope and TE-FM Epi-Fluorescence attachment (Nikon Canada).
Untransfected cells or cells transfected with the TRPM7/pTracer or ΔPDZ/pTracer construct were plated onto 24-well plates, 24-hours post-transfection. Untransfected cells were plated at 0.75×10^6 cells/well and transfected cells at 1×10^6 cells/well. The plates were coated with poly-D-lysine to strengthen cell adhesion and to minimize cell loss during washes. Cells were loaded by incubation with 5 μM fluo-3 AM and 0.02% pluronic in HBSS at 37° C. for 30 minutes. Following loading, cells were washed with an aglycaemic HBSS containing, in mM: 20 N-methyl-D-glucamine (NMDG), 121 NaCl, 5 KCl, 10 HEPES acid, 10 HEPES-Na salt, 3 NaHCO3, 1 Na-pyruvate, and 1.8 CaCl2, pH adjusted to 7.4 with HCl. Calcium uptake, as assessed by fluo-3 fluorescence, was measured in response to 0, 5, 10, 15, 20, or 25 mM sodium cyanide (NaCN; Mallinckrodt Baker Inc., Phillipsburg, N.J.) dissolved in aglycaemic HBSS. A 250 mM NaCN stock was prepared in water and stored at room temperature for up to 2 weeks. Measurements of fluo-3 fluorescence were taken over a 2 hour period at 10 minutes intervals at room temperature (22-25° C.). Calcium uptake assays were performed 48 hours post-transfection.
Cell death, as assessed by PI uptake, was examined at the end of the 2 hour calcium uptake assay. Cells were stained with 10 μg/mL PI and PI fluorescence measured using the Fluoroskan microplate reader (λ excitation=590 nm, λ emission=630 nm) and accompanying Ascent software (Thermo Electron Corp.). To obtain a reading of maximal fluorescence (Fmax), 0.5% Triton X-100 was added to each well and allowed to incubate for 20 minutes. Cell death assays were performed 48 hours post-transfection.
Data was entered into Excel (Microsoft, Seattle, Wash.) or SigmaPlot (SPSS Inc., Chicago, Ill.) for analysis. Pooled data are presented as the mean of at least 3 separate experiments±sem. Calcium uptake is expressed as a fraction of baseline uptake: ΔFt=(Ft−Fo)/Fo where Ft is the fluorescence at time t, and Fo is the fluorescence at baseline. Cell death is expressed as a percentage of total cell death: cell death (%)=Ft/Fmax×100 where Ft is the fluorescence at time t and Fmax is the maximal fluorescence obtained by permeabilization with Triton X-100. Concentration-response curves were fit by nonlinear regression with a 4 parameter logistic curve represented by the following equation: y=min+{(max−min)/[1+(x/EC50)n]} where y is the response at concentration x, min is the minimal response, max is the maximal response, EC50 is the concentration required for half-maximal response, and n is the Hill slope. Statistical analysis of data was carried out with a two-tailed Student's t test, or a one-way analysis of variance (ANOVA) followed by post hoc pairwise multiple comparisons testing using the Holm-Sidak method, where appropriate. […]

[2] = molecular target: T2, TRPM7 ion channel (Mus musculus, UniProt Q923J1); assay: Whole-cell patch clamp of TRPM7 currents in HEK293 cells; type: cell-based; settings: value shown = concentration at which the compound significantly inhibits the ion channel
T2 construct: expressed in transfected cells; host or cells: TRPM7-tet-on HEK293 cells
T2 sequence (Q923J1 whole entry): as above
Experimental: To further understand the structure function relationships between the TRPM7 inhibitors identified in the TRPM7-dependent HEK death assay, the activity of a subset of these inhibitors described herein were tested for their ability to inhibit TRPM7 currents in cell systems. Whole-cell patch clamp recordings were used essentially as described to test the TRPM7 inhibitors in HEK293 cells, H9c2 cardiomyocytes and cultured neurons. […] Those that provide >10% inhibition of TRPM7 channel activity in the HEK293 cell system were labeled with the concentration tested (generally 5 uM). Thus, the compounds in this table marked with such a value are able to block the activity gof the TRPM7 ion channel. FIGS. 2A-C provide an example of this for the TRPM7 inhibitor 399 (Structure 9). […] Numbers in brackets indicate the number of independent tests, and the bars represent the SEM.
Whole-cell currents were recorded using an Axopatch 1D or MultiClamp 700B amplifier and were digitized at 10 kHz and low-pass filtered at 2 kHz, at room temperature. pClamp10 software was used for data acquisition and analysis. Patch electrodes were pulled from Borosilicate glass and fire polished to a resistance of 2-4 MΩ. All drugs were administrated directly to cell bodies under recording through the fast exchange perfusion system.
The intracellular solution (ICS) contains (mM) 145 Cs-methanesulfonate, 8 NaCl, l MgCl2, 4.1 CaCl2, 10 EGTA, and 10 HEPES, 5 ATP, pH at 7.4, with 300-305 mOsm. The extracellular solution (ECS) contains (mM) 140 NaCl, 5 KCl, 2 CaCl2, 20 HEPES, and 10 glucose, pH at 7.4 and with 315-320 mOsm.
Voltage stimuli lasting 250 ms were delivered at 5-s intervals with voltage ramps ranging from −100 to +100 mV. The current values at −80 mV and +80 mV on I-V curve represent the measures of inward and outward current respectively.
Table X and FIGS. 7-51 show screening data for several additional compounds that are variants of M5, M6 or M21. The synthesis of compounds of Table X and FIGS. 7-51 is shown in Appendices A-C. The compounds shown in FIGS. 7-51 can be related to the appropriate row of Table X by the compound number shown in the figures and in the first column of Table X. The compounds in Table X other than M5, M6 and M21 themselves, are believed to be novel. The Table provides a number identifying the compound, its structurer, molecular weight and its cluster (i.e., whether the compound resembles M5, M6 or M21). The three columns relations to PI uptake describe the results of screening the compounds in the type of assay from Example 1. […] The last two columns show an effect on proliferation of Weri retinoblastoma or HeLa cervical cancer cells. Inhibition of proliferation is a measure of anti-neoplastic activity. […] If no data is shown, no test was performed.

[3] = Table X, the lower the number, the more potent in protecting against cell death
[4] = Table X, the lower the number, the more potent
[5] = Table Y, commercially available compounds

Row | SMILES | Normalized ratio of PI uptake (5 μM) [1, 3] | Normalized ratio of PI uptake (10 μM) [1, 4] | IC50 ([1]; Table X) [µM] | TRPM7 current [2] | Normalized ratio of PI uptake (5 μM) [1, 5] | Normalized ratio of PI uptake (10 μM) [1, 5] | IC50 [1, 5] [µM]
1 | O=C(NC1CCCc2ccccc21)c1sc2ccccc2c1Cl (centres unmarked) [Compound 97] | 0 | 0.084 | 1.24 | 5 μM (Those that provide >10% inhibition of TRPM7 channel activity in the HEK293 cell system were labeled with the concentration tested (generally 5 uM)) |  |  | 
2 | Cc1cccc2sc(C3=NCCc4c(F)cccc43)c(Cl)c12 [Compound 117] | 0.02 | 0.07 | 1.67 | 5 μM (Those that provide >10% inhibition of TRPM7 channel activity in the HEK293 cell system were labeled with the concentration tested (generally 5 uM)) |  |  | 
3 | COc1cc2c(cc1OC)C(c1sc3cc(OC)c(OC)cc3c1Cl)=NCC2 [Compound 120] | 0.079 | 0.066 | 2.55 | 5 μM (Those that provide >10% inhibition of TRPM7 channel activity in the HEK293 cell system were labeled with the concentration tested (generally 5 uM)) |  |  | 
4 | COc1cc(OC)c2c(C)c(Cc3ccc(Cl)c(Cl)c3)c(=O)[nH]c2c1 [Compound 130] | 0.1 | 0.06 | 0.93 |  |  |  | 
5 | CCCc1c(Cc2ccc(Cl)c(Cl)c2)c(=O)[nH]c2cc(OC)cc(OC)c12 [Compound 132] | 0.73 | 0.1 | 4.46 |  |  |  | 
6 | Cc1c(Cc2c(F)cccc2Cl)c(=O)[nH]c2cc(O)cc(O)c12 [Compound 133] | 0.367 | 0.123 | 3.31 |  |  |  | 
7 | CCCc1c(Cc2cccc(Cl)c2)c(=O)[nH]c2cc(O)cc(O)c12 [Compound 134] | 0.564 | 0.305 |  |  |  |  | 
8 | CCCc1c(Cc2ccc(Cl)c(Cl)c2)c(=O)[nH]c2cc(O)cc(O)c12 [Compound 136] | 0.534 | 0.238 | 18.4 |  |  |  | 
9 | Cc1c(Cc2c(Cl)cccc2Cl)c(=O)[nH]c2cc(O)cc(O)c12 [Compound 137] | 0.575 | 0.296 | 8.5 |  |  |  | 
10 | COc1cc(OC)c2c(C)c(Cc3ccc(F)cc3)c(=O)[nH]c2c1 [Compound 138] | 0.034 | 0.026 | 0.47 |  |  |  | 
11 | Cc1c(Cc2cccc(Cl)c2)c(=O)[nH]c2cc(O)cc(O)c12 [Compound 140] | 0.487 | 0.062 | 11.1 |  |  |  | 
12 | O=C(c1sc2ccccc2c1Cl)N(Cc1ccccc1)c1ccccc1 [MCC1879 #5, reference compound] |  |  |  |  | 0.108 | 0.062 | 1.77
13 | Cc1c(Cc2c(Cl)cccc2Cl)c(=O)oc2cc(O)c(Cl)cc12 [RJF00028SC #11, reference compound] |  |  |  |  | 0.233 | 0.136 | 3.16
14 | CCCc1c(Cc2c(F)cccc2Cl)c(=O)oc2cc(O)ccc12 [RJF01538SC #14, reference compound] |  |  |  |  | 0.16 | 0.057 | 2.78
15 | Cc1c(Cc2ccc(F)cc2)c(=O)oc2cc(O)ccc12 [RJF01910SC #10, reference compound] |  |  |  |  | 0.465 | 0.261 | 4.15
16 | Cc1c(Cc2ccccc2)c(=O)oc2c(CN(C)C)c(O)ccc12 [STOCK1N- 36829 #3, reference compound] |  |  |  |  | 0.262 | 0.102 | 4.72
17 | Cc1c(Cc2ccccc2)c(=O)oc2cc(O)cc(O)c12 [STOCK1N- 70089 #1, reference compound] |  |  |  |  | 0.181 | 0.005 | 3.16
18 | CCN(CC)Cc1c(O)ccc2c(C)c(Cc3ccccc3)c(=O)oc12 [STOCK4S- 10213 #1, reference compound] |  |  |  |  | 0.398 | 0.242 | 4.3
19 | Cc1c(Cc2ccccc2)c(=O)oc2cc(O)c(Cl)cc12 [STOCK6S- 31467 #2, reference compound] |  |  |  |  | 0.472 | 0.1 | 12.6
20 | O=C(NC1CCOc2ccccc21)c1cc2ccccc2[nH]1 (centres unmarked) [T6749380 #12, reference compound] |  |  |  |  | 0.043 | 0.029 | 2.8
21 | CC1c2ccsc2CCN1C(=O)c1c(Cl)c2ccccc2n1C (centres unmarked) [T6857127 #7, reference compound] |  |  |  |  | 0 | 0 | 0.8
22 | CC1c2ccsc2CCN1C(=O)c1[nH]c2ccccc2c1Cl (centres unmarked) [T6899791 #8, reference compound] |  |  |  |  | 0 | 0 | 0.7
